Article PMC8402619 (Viruses, 2021)
Like-named read-outs stand apart in the source and are kept apart here.

Tests used:
[1] = cited from earlier work
MDR1 P-gp [2] = target: T1, MDR1 P-gp (Homo sapiens, UniProt P08183); test: Uptake in MDR1 P-gp-containing Sf9 membrane vesicles (substrate); type: in vitro ADME; set-up: expressed in transfected cells
OAT3 = target: T2, OAT3 (Homo sapiens, UniProt Q8TCC7); test: Islatravir uptake as substrate, MDCKII vs MDCKII-OAT3 cells; type: in vitro ADME
T2 construct: expressed in transfected cells; host or cells: MDCKII
T2 sequence (Q8TCC7 1-542): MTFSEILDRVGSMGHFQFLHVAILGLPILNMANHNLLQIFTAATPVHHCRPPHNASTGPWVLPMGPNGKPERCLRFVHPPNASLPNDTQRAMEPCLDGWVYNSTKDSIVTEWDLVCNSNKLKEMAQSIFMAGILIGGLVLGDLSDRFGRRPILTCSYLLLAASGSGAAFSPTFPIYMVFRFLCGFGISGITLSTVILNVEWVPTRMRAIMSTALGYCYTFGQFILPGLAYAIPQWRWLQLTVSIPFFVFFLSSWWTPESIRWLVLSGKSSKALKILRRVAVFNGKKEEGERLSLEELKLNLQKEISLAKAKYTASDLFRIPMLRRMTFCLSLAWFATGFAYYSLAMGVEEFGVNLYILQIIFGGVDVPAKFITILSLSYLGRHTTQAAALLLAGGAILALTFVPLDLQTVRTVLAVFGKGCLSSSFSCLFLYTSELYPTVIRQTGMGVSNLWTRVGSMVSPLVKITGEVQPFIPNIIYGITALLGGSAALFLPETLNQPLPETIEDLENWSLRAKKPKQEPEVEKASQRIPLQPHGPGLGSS

[3] = Plasma protein binding by equilibrium dialysis, monkey plasma; type: in vitro ADME; details: pH 7.4
CYP2C8 [4] = target: T3, CYP2C8 (Homo sapiens, UniProt P10632); test: Reversible CYP inhibition in pooled human liver microsomes; type: in vitro ADME
T3 sequence (P10632 1-490): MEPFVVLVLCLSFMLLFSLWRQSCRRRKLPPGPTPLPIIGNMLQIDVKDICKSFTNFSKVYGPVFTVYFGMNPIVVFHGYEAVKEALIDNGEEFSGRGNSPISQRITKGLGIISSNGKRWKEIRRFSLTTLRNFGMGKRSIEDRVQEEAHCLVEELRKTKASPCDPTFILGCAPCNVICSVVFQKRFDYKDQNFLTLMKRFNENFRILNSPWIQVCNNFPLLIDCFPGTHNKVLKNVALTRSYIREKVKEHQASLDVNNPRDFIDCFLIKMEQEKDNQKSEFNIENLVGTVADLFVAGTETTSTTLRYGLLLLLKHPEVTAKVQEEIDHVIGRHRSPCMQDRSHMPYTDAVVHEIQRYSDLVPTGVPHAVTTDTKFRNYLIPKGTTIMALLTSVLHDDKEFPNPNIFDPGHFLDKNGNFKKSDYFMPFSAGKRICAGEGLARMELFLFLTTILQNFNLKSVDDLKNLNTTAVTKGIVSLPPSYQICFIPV

UGT1A1 = target: T4, UGT1A1 (Homo sapiens, UniProt P22309); type: in vitro ADME
T4 sequence (P22309 26-533): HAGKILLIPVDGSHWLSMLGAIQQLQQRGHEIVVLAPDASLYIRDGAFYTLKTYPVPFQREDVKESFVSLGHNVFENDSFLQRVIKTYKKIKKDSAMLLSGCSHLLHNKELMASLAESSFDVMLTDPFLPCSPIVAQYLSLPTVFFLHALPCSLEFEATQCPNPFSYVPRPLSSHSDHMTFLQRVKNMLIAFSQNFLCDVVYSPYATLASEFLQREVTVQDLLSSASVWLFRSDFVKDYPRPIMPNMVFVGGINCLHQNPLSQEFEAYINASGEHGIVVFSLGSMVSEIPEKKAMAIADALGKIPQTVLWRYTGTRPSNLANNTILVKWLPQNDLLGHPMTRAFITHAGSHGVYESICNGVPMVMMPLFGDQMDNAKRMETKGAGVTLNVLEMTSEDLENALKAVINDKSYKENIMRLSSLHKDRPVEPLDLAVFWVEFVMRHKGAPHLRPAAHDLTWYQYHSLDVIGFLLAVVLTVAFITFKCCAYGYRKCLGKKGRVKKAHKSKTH

MDR1 P-gp [5] = target: T1, MDR1 P-gp; type: in vitro ADME; set-up: expressed in transfected cells; host or cells: LLC-PK1
CYP2C8 [6] = target: T3, CYP2C8; test: Time-dependent CYP inhibition in pooled human liver microsomes; type: in vitro ADME
CYP2B6 = test: CYP induction in cryopreserved human hepatocytes; details: for mRNA Mean Fold Change ± SD CYP2B6: 48 h, n = 3 donors, vs DMSO vehicle
[7] = Renal clearance after 1 mg/kg intravenous, mouse; type: in vivo, male CD-1 mice; details: 1 mg/kg intravenously
[8] = [14C]islatravir 5 µM, presence of ATP, 10 min, mean ± standard deviation

T1 sequence (P08183 whole entry): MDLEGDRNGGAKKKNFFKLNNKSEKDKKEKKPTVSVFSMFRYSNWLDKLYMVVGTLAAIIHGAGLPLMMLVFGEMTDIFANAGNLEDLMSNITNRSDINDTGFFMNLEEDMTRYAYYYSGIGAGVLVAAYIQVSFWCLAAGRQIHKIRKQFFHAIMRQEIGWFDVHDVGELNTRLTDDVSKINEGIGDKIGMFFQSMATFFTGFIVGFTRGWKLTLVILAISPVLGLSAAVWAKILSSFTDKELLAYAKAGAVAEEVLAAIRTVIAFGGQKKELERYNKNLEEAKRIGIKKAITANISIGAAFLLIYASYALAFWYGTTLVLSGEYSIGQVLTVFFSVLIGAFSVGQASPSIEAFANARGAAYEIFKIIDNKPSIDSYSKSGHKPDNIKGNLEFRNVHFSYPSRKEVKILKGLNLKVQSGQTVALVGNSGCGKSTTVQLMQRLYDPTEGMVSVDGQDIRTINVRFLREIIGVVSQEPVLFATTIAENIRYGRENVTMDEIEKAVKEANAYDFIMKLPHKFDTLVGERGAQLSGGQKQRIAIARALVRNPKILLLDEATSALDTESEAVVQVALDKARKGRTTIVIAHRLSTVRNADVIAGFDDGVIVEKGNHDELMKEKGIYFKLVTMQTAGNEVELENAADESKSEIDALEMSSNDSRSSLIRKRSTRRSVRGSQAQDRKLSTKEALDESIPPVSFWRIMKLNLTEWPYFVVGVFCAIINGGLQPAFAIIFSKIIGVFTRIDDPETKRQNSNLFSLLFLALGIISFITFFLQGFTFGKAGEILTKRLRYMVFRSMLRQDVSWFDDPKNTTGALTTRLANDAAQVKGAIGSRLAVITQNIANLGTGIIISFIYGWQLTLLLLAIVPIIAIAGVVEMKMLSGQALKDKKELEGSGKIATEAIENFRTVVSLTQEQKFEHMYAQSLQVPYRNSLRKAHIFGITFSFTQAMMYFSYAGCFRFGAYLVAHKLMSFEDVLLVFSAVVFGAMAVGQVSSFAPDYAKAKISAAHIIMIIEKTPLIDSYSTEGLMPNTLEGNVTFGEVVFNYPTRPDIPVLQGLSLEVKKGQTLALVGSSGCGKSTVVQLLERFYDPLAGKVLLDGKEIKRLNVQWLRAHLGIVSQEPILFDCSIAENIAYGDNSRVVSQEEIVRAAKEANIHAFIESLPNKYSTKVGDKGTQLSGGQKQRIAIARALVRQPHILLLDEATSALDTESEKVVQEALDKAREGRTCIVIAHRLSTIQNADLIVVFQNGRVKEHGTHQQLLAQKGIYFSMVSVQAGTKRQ

**Q.** Which “drug-drug interaction, PK” value ([1]; co-administered with doravirine) does the source give for `C#C[C@]1(CO)O[C@@H](n2cnc3c(N)nc(F)nc32)C[C@@H]1O` [Islatravir, 4′-Ethynyl-2-fluoro-2′-deoxyadenosine] here?
**A.** no clinically meaningful effects on the PK of either drug

**Q.** What about the drug-drug interaction ([1]; co-administration with levonorgestrel/ethinyl estradiol) of the same compound?
**A.** No significant drug–drug interactions

**Q.** What about the “drug-drug interaction, PK” value ([1]; with tenofovir disoproxil fumarate and dolutegravir) of the same compound?
**A.** no meaningful drug–drug interactions

**Q.** What about the “uptake into control vesicles” value (MDR1 P-gp [2]; [8]) of the same compound?
**A.** 5.7 ± 2.1 pmole/mg protein

**Q.** And the “uptake into membrane vesicles containing MDR1 P-gp” value (MDR1 P-gp [2]; [8])?
**A.** 3.7 ± 1.3 pmole/mg protein

**Q.** And the “MDR1 P-gp substrate assessment” value (MDR1 P-gp [2]; uptake not ATP-dependent)?
**A.** not a substrate of MDR1 P-gp

**Q.** What about the “Islatravir Uptake Transporter-Expressing Cells” value (OAT3; MDCKII-OAT3, 1 µM [3H]islatravir, 5 min, mean ± SD, n = 3) of the same compound?
**A.** 0.85 ± 0.06 pmole/10^6 Cells

**Q.** And the Fold-Difference (OAT3; OAT3, uptake into transporter-expressing cells to control cells, 5 min)?
**A.** 1.23

**Q.** And the “Islatravir Uptake Control Cells” value (OAT3; OAT3 row, MDCKII control cells, 1 µM [3H]islatravir, 5 min, mean ± SD, n = 3)?
**A.** 0.69 ± 0.07 pmole/10^6 Cells

**Q.** What about the Conclusions (OAT3; OAT3 substrate assessment) of the same compound?
**A.** Non-substrate

**Q.** And the fraction unbound at 24 h, 0.1 µM [3]?
**A.** > 0.84

**Q.** And the “DDI Potential” value (CYP2C8 [4]; CYP2C8 reversible inhibition, FDA, EMA, PMDA guidance)?
**A.** Low risk

**Q.** And the “Maximum Unbound Plasma Concentration (Imax,u) to Ki,u Ratio” value (CYP2C8 [4]; CYP2C8 reversible, 60 mg, Cmax 1.01 µM, fu,p 0.96, Ki,u = IC50/2)?
**A.** <0.019 µM

**Q.** What about the IC50 (CYP2C8 [4]; reversible, CYP2C8 amodiaquine N-deethylation, read-out: Islatravir IC50) of the same compound?
**A.** > 100 µM

**Q.** And the “DDI Potential” value (UGT1A1; UGT1A1 reversible inhibition, FDA, EMA, PMDA guidance)?
**A.** Low risk ^g

**Q.** And the “Intestinal Concentration (Igut) to Ki,u Ratio” value (UGT1A1; UGT1A1 reversible, Igut = 60 mg/250 mL = 818 µM)?
**A.** <16.4 µM

**Q.** What about the IC50 (UGT1A1; reversible, UGT1A1 estradiol 3-glucuronidation, read-out: Islatravir IC50) of the same compound?
**A.** > 100 µM

**Q.** What about the “DDI Potential” value (MDR1 P-gp [5]; MDR1 P-gp inhibition, FDA, EMA, PMDA guidance) of the same compound?
**A.** Low risk

**Q.** And the IC50 (MDR1 P-gp [5]; MDR1 P-gp-mediated digoxin transport, read-out: Islatravir IC50)?
**A.** > 200 µM

**Q.** What about the “Maximum Unbound Plasma Concentration (Imax,u) to IC50 Ratio” value (MDR1 P-gp [5]; MDR1 P-gp, 60 mg, Cmax 1.01 µM, fu,p 0.96) of the same compound?
**A.** <5 nM

**Q.** And the “Intestinal Concentration (Igut) to IC50 Ratio” value (MDR1 P-gp [5]; MDR1 P-gp, Igut = 60 mg/250 mL = 818 µM)?
**A.** <4.1 µM

**Q.** What about the time-dependent inhibition (CYP2C8 [6]; CYP2C8, pre-incubation of 10 and 50 µM for up to 30 min) of the same compound?
**A.** no time-dependent inhibition

**Q.** And the “DDI Potential” value (CYP2C8 [6]; CYP2C8 time dependent inhibition)?
**A.** Low risk ^h

**Q.** And the IC50 (CYP2C8 [6]; time dependent, CYP2C8, read-out: Islatravir IC50)?
**A.** > 50 µM

**Q.** And the “mRNA Mean Fold Change ± SD CYP2B6” value (CYP2B6; 0.1 µM)?
**A.** 0.5 ± 0.1

**Q.** And the “mRNA Mean Fold Change ± SD CYP2B6” value (CYP2B6; 0.5 µM)?
**A.** 0.5 ± 0.2

**Q.** And the “mRNA Mean Fold Change ± SD CYP2B6” value (CYP2B6; 1 µM)?
**A.** 0.7 ± 0.2

**Q.** What about the “mRNA Mean Fold Change ± SD CYP2B6” value (CYP2B6; 5 µM) of the same compound?
**A.** 0.7 ± 0.1

**Q.** And the “mRNA Mean Fold Change ± SD CYP2B6” value (CYP2B6; 10 µM)?
**A.** 0.9 ± 0.3

**Q.** What about the “mRNA Mean Fold Change ± SD CYP2B6” value (CYP2B6; 20 µM) of the same compound?
**A.** 0.4 ± 0.3

**Q.** What about the “mRNA response relative to positive control” value (CYP2B6; CYP2B6, each tested concentration 0.1-20 µM) of the same compound?
**A.** less than 20%

**Q.** And the “enzyme activity, fold of solvent control” value (CYP2B6; CYP2B6 bupropion hydroxylation, all islatravir concentrations)?
**A.** ≤ 1.1 fold

**Q.** What about the “Renal Excretion (% Total Plasma Clearance)” value [7] of the same compound?
**A.** 61%

**Q.** What about the CL renal ([7]; male, CD-1, plasma and urine, iv, urine 0-24 h) of the same compound?
**A.** 15.4 mL/min/kg
